Values after ≈ are worked out from the molar mass of the structure shown.
Key:
Experiment in all cases: ≥ marks a high value that may be exact or a test limit, other limits are often not marked, values filed in µg/mL are converted to µM
[1] = system: Escherichia coli ATCC 11219
[2] = system: Klebsiella pneumoniae ATCC 10031
[3] = system: Pseudomonas aeruginosa ATCC 13388
[4] = system: Salmonella enterica subsp. enterica serovar Typhimurium ATCC 14028
[5] = system: Staphylococcus aureus ATCC 6538
[6] = system: Candida albicans ATCC 14053
[7] = system: Enterococcus faecalis ATCC 29212
[8] = system: Escherichia coli ATCC 25922
[9] = system: Klebsiella pneumoniae ATCC 13883
[10] = system: Pseudomonas aeruginosa ATCC 27853
[11] = system: Staphylococcus aureus ATCC 29213
[12] = system: Escherichia coli TOP 10
[13] = system: Bacillus subtilis KCTC 3068
[14] = system: Escherichia coli JM109
[15] = system: Escherichia coli KCTC 1682
[16] = system: Pseudomonas aeruginosa KCTC 1637
[17] = system: Salmonella typhimurium KCTC 1926
[18] = system: Staphylococcus aureus KCTC 1621
[19] = system: Staphylococcus epidermidis KCTC 1917
[20] = system: Bacillus subtilis KCTC 1918
[21] = system: Candida albicans TIMM 1768
[22] = system: Trichosporon beigelii KCTC 7707
[23] = system: Bacillus cereus AS1.126
[24] = system: Enterobacter cloacae CGMCC 1.58
[25] = system: Enterococcus faecalis CGMCC 1.595
[26] = system: Enterococcus faecium CGMCC 1.2334
[27] = system: Escherichia coli AS1.349
[28] = system: Klebsiella aerogenes CGMCC 1.876
[29] = system: Klebsiella pneumoniae subsp. pneumoniae CGMCC 1.176
[30] = system: Lactococcus lactis AS1.1690
[31] = system: Pseudomonas aeruginosa CGMCC 1.860
[32] = system: Staphylococcus aureus AS1.72

## CC[C@H](C)[C@H](NC(=O)CN)C(=O)N[C@@H](C)C(=O)N[C@@H](CC(=O)O)C(=O)N[C@H](C(=O)N[C@@H](CC(C)C)C(=O)N[C@@H](CCCCN)C(=O)N[C@@H](Cc1ccc(O)cc1)C(=O)NCC(=O)N[C@@H](CCCCN)C(=O)N1CCC[C@H]1C(=O)N[C@@H](CO)C(N)=O)[C@@H](C)CC [GIADILKYGKPS]
[1]
  MIC: ≥ 50 µM
[2]
  MIC: 30 µM (≈ 37.8 µg/mL)
[3]
  MIC: 15 µM (≈ 18.9 µg/mL)
[4]
  MIC: 10 µM (≈ 12.6 µg/mL)
[5]
  MIC: 20 µM (≈ 25.2 µg/mL)

## CC[C@H](C)[C@H](NC(=O)CN)C(=O)N[C@@H](CCCCN)C(=O)N[C@@H](CC(=O)O)C(=O)N[C@H](C(=O)N[C@@H](CC(C)C)C(=O)N[C@@H](CCCCN)C(=O)N[C@@H](Cc1ccc(O)cc1)C(=O)NCC(=O)N[C@@H](CCCCN)C(=O)N1CCC[C@H]1C(=O)N[C@@H](CO)C(N)=O)[C@@H](C)CC [GIKDILKYGKPS]
[1]
  MIC: 10 µM (≈ 13.2 µg/mL)
[2]
  MIC: 10 µM (≈ 13.2 µg/mL)
[3]
  MIC: 30 µM (≈ 39.5 µg/mL)
[4]
  MIC: 5 µM (≈ 6.59 µg/mL)
[5]
  MIC: 15 µM (≈ 19.8 µg/mL)

## CC[C@H](C)[C@H](NC(=O)CNC(C)=O)C(=O)N[C@@H](CCCN=C(N)N)C(=O)N[C@@H](CCCN=C(N)N)C(=O)N[C@H](C(=O)N[C@@H](CC(C)C)C(=O)N[C@@H](CCCCN)C(=O)N[C@@H](Cc1ccc(O)cc1)C(=O)NCC(=O)N[C@@H](CCCCN)C(=O)N[C@@H](CCCN=C(N)N)C(=O)N[C@@H](CO)C(N)=O)[C@@H](C)CC [GIRRILKYGKRS]
[1]
  MIC: 5 µM (≈ 7.44 µg/mL)
[2]
  MIC: 5 µM (≈ 7.44 µg/mL)
[3]
  MIC: 20 µM (≈ 29.8 µg/mL)
[4]
  MIC: 20 µM (≈ 29.8 µg/mL)
[5]
  MIC: 2.2 µM (≈ 3.27 µg/mL)

## CC[C@H](C)[C@H](NC(=O)[C@H](CCCCN)NC(=O)[C@H](CO)NC(=O)[C@H](C)NC(=O)[C@H](Cc1c[nH]c2ccccc12)NC(=O)CN)C(=O)NCC(=O)N[C@@H](CCC(N)=O)C(=O)N[C@H](C(=O)N[C@@H](CC(C)C)C(=O)NCC(=O)N[C@@H](CCCCN)C(=O)N[C@H](C(=O)N[C@@H](C)C(=O)N[C@@H](CCCCN)C(=O)N[C@H](C(=O)NCC(=O)N[C@@H](CC(C)C)C(=O)N[C@@H](CCCCN)C(=O)N[C@@H](CCC(=O)O)C(=O)N[C@@H](CC(C)C)C(=O)N[C@H](C(=O)N[C@@H](CCC(N)=O)C(=O)N1CCC[C@H]1C(=O)N[C@@H](CCCCN)C(N)=O)[C@@H](C)CC)C(C)C)[C@@H](C)CC)[C@@H](C)O [GWASKIGQTLGKIAKVGLKELIQPK]
[6]
  MIC: ≥ 133 µM
[7]
  MIC: 133 µM (≈ 353 µg/mL)
[8]
  MIC: 8.36 µM (≈ 22.3 µg/mL)
[9]
  MIC: ≥ 33 µM
[10]
  MIC: 66.4 µM (≈ 177 µg/mL)
[11]
  MIC: 133 µM (≈ 353 µg/mL)

## CC[C@H](C)[C@H](N)C(=O)N[C@@H](CCCCN)C(=O)N[C@@H](C)C(=O)N[C@@H](CC(C)C)C(=O)N[C@@H](CC(C)C)C(=O)N[C@@H](C)C(=O)N[C@@H](CC(C)C)C(=O)N1CCC[C@H]1C(=O)N[C@@H](CCCCN)C(=O)N[C@@H](CC(C)C)C(=O)N[C@@H](C)C(=O)N[C@@H](CCCCN)C(=O)N[C@@H](CCCCN)C(=O)N[C@H](C(=O)N[C@@H](C)C(=O)N[C@@H](CCCCN)C(=O)N[C@@H](CCCCN)C(=O)N[C@@H](Cc1ccccc1)C(=O)N[C@@H](CC(C)C)C(=O)N[C@@H](CCCCN)C(N)=O)[C@@H](C)CC [IKALLALPKLAKKIAKKFLK]
[12]
  MIC: 22.4 µM (≈ 50 µg/mL)

## CC[C@H](C)[C@H](N)C(=O)N[C@@H](CC(C)C)C(=O)N1CCC[C@H]1C(=O)N[C@@H](Cc1c[nH]c2ccccc12)C(=O)N[C@@H](CCCCN)C(=O)N[C@@H](Cc1c[nH]c2ccccc12)C(=O)N[C@@H](CCCCN)C(=O)N[C@@H](Cc1c[nH]c2ccccc12)C(=O)N[C@@H](Cc1c[nH]c2ccccc12)C(=O)N1CCC[C@H]1C(=O)N[C@@H](Cc1c[nH]c2ccccc12)C(=O)N[C@@H](CCCN=C(N)N)C(=O)N[C@@H](CCCN=C(N)N)C(N)=O [ILPWKWKWWPWRR]
[13]
  MIC: 2.58 µM (≈ 5 µg/mL)
[14]
  MIC: 1 µM (≈ 1.94 µg/mL)
[15]
  MIC: 5.16 µM (≈ 10 µg/mL)
[16]
  MIC: 10.3 µM (≈ 20 µg/mL)
[17]
  MIC: 5.16 µM (≈ 10 µg/mL)
[18]
  MIC: 2.58 µM (≈ 5 µg/mL)
[19]
  MIC: 5.16 µM (≈ 10 µg/mL)

## CC[C@H](C)[C@H](NC(=O)[C@H](CO)NC(=O)[C@H](CCCN=C(N)N)NC(=O)[C@@H](NC(=O)[C@H](CS)NC(=O)[C@H](CO)NC(=O)[C@@H]1CCCN1C(=O)[C@H](CC(C)C)NC(=O)[C@H](Cc1ccccc1)NC(=O)[C@H](CCCN=C(N)N)NC(=O)[C@@H](N)CCCCN)C(C)C)C(=O)N[C@@H](CCC(N)=O)C(=O)N[C@@H](CC(N)=O)C(=O)N[C@@H](CC(C)C)C(=O)N[C@@H](CC(=O)O)C(=O)N[C@@H](CC(=O)O)C(=O)N[C@@H](C)C(=O)N[C@@H](CC(C)C)C(=O)N1CCC[C@H]1C(=O)N[C@H](C(=O)N1CCC[C@H]1C(=O)N[C@@H](CCC(=O)O)C(=O)N[C@@H](CCC(=O)O)C(=O)N[C@@H](Cc1ccccc1)C(N)=O)[C@@H](C)O [KRFLPSCVRSIQNLDDALPTPEEF]
[12]
  MIC: ≥ 36 µM

## CC(C)C[C@H](NC(=O)[C@H](CCCCN)NC(=O)[C@H](CCCCN)NC(=O)[C@H](Cc1c[nH]c2ccccc12)NC(=O)[C@@H](N)CCCCN)C(=O)N[C@@H](CC(C)C)C(=O)N[C@@H](CCCCN)C(=O)N[C@@H](CCCCN)C(=O)N1CCC[C@H]1C(=O)N[C@@H](CC(C)C)C(=O)N[C@@H](CC(C)C)C(=O)N[C@@H](CCCCN)C(=O)N[C@@H](CCCCN)C(N)=O [KWKKLLKKPLLKK]
[20]
  MIC: 6.25 µM (≈ 10.3 µg/mL)
[21]
  MIC: 25 µM (≈ 41.3 µg/mL)
[15]
  MIC: 12.5 µM (≈ 20.6 µg/mL)
[16]
  MIC: 12.5 µM (≈ 20.6 µg/mL)
[17]
  MIC: 1.56 µM (≈ 2.57 µg/mL)
[18]
  MIC: 12.5 µM (≈ 20.6 µg/mL)
[22]
  MIC: 25 µM (≈ 41.3 µg/mL)

## NC(N)=NCCC[C@H](NC(=O)[C@H](CCCN=C(N)N)NC(=O)[C@H](Cc1c[nH]c2ccccc12)NC(=O)[C@H](Cc1ccccc1)NC(=O)[C@H](CCCN=C(N)N)NC(=O)[C@H](CCCN=C(N)N)NC(=O)[C@@H](N)Cc1c[nH]c2ccccc12)C(=O)O [WRRFWRR]
[23]
  MIC: 1.56 µM (≈ 1.81 µg/mL)
[24]
  MIC: ≥ 100 µM
[25]
  MIC: 25 µM (≈ 29.1 µg/mL)
[26]
  MIC: 25 µM (≈ 29.1 µg/mL)
[27]
  MIC: 25 µM (≈ 29.1 µg/mL)
[28]
  MIC: ≥ 100 µM
[29]
  MIC: ≥ 100 µM
[30]
  MIC: 12.5 µM (≈ 14.5 µg/mL)
[31]
  MIC: 12.5 µM (≈ 14.5 µg/mL)
[32]
  MIC: ≥ 50 µM

— DBAASP
